{
  "source": "patent US11484543B2",
  "about": "“Compositions and methods for diagnosing and treating diseases and disorders associated with mutant KCNJ5” (The Rockefeller University, priority 2017, dated 2022)",
  "target": "T1, KCNJ5^G151R (Homo sapiens, UniProt P48544, G151R)",
  "T1 construct": "expressed in transfected cells",
  "T1 sequence (P48544 1-419 G151R)": "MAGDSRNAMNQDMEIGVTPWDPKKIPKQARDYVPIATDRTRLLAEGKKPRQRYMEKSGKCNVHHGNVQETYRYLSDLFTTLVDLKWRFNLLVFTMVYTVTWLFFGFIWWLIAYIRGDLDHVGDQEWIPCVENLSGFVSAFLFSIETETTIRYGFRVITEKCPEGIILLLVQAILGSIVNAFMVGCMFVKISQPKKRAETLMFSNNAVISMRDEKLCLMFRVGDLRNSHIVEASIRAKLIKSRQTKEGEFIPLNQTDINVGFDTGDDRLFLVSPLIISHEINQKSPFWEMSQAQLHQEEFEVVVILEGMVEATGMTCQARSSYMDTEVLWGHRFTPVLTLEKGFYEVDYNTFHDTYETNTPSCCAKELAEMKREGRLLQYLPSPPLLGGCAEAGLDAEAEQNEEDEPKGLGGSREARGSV",
  "experiment": "cell-based",
  "format": "cell-based",
  "method_in_brief": "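Viability is read as cellular ATP by CellTiter-Glo luminescence 72 h later at 37 °C. Uninduced and induced untreated cells set 100% and 0% effect; curves use a 4-parameter logistic fit.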",
  "key": {"[1]": {"settings": "10-point dilution 20 to 0.0391 μM, N=3, four-parameter fit"}},
  "note": "Where two headings read alike, the source gives them in different places.",
  "data": [
    {"molecule": "CC[C@H]1OC(=O)[C@H](C)[C@@H](O[C@H]2C[C@@](C)(OC)[C@@H](O)[C@H](C)O2)[C@H](C)[C@@H](O[C@@H]2O[C@H](C)C[C@H](N(C)C)[C@H]2O)[C@](C)(O)C[C@@H](C)/C(=N\\OCOCCOC)[C@H](C)[C@@H](O)[C@]1(C)O", "note": "[Roxithromycin, roxithromycin]", "values": [
      {"measurement": "G151R maximum inhibition", "setting": "[1]", "value": 105.92, "unit": "%"},
      {"measurement": "G151R minimum inhibition", "setting": "[1]", "value": 9.92, "unit": "%"},
      {"measurement": "viability at 10 µM", "setting": "HEK293, 72 h, mean of primary screen and hit pick, read-out: mean % effect", "value": 107, "unit": "%"},
      {"measurement": "viability at 10 µM", "setting": "HEK293, ATP level 72 h after induction, uninduced = 100%, induced = 0% effect, first of the two runs (primary screen / hit pick), read-out: % effect (1)", "value": 108, "unit": "%"},
      {"measurement": "viability at 10 µM", "setting": "HEK293, ATP level 72 h after induction, uninduced = 100%, induced = 0% effect, second of the two runs (primary screen / hit pick, confirmatory testing), read-out: % effect (2)", "value": 107, "unit": "%"},
      {"measurement": "rescue of ATP level", "setting": "dose-response at 1.1, 3.3 and 10 μM", "value": "virtually complete rescue of ATP level"},
      {"measurement": "inhibition of KCNJ5^MUT (structure-activity statement)", "setting": "macrolide series, dilution curves", "value": "potent effects"}
    ]},
    {"molecule": "N-demethyl-N-isobutyl-8,9-anhydroerythromycin A 6,9-hemiacetal [PLUX37]", "values": [
      {"measurement": "inhibition of KCNJ5^G151R by synthesized macrolide derivatives", "setting": "tested as in FIG. 7 (FIGS. 9 and 10)", "value": "significant inhibition"}
    ]}
  ]
}
